Reference: patent EP2987533B1, “7-substituted piperazin-1-yl fluoroquinolone compounds, their use in the treatment of cancer, pharmaceutical compositions and a method for preparation” (priority 2014, dated 2016)

Columns and labels:
[1] = tested on: SF-539; assay: NCI one-dose SRB growth assay; type: cell-based; details: Homo sapiens; SF-539 (CNS Cancer), 10^-5 M, 48 h; read-out: % Growth Inhibition (GI %)
Summary of the method: (§1)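 NCI primary one-dose screen: human tumor lines exposed to test agent (10^-5M, 48 h), then SRB protein staining; results reported as growth % versus no-drug controls.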

[2] = tested on: NCI-H460; assay: NCI one-dose SRB growth assay; type: cell-based; details: Homo sapiens; NCI-H460 (Non-Small Cell Lung Cancer), 10^-5 M, 48 h; read-out: % Growth Inhibition (GI %)
[3] = tested on: SF-268; assay: NCI one-dose SRB growth assay; type: cell-based; details: Homo sapiens; SF-268 (CNS Cancer), 10^-5 M, 48 h; read-out: % Growth Inhibition (GI %)
[4] = tested on: HCC-2998; assay: NCI one-dose SRB growth assay; type: cell-based; details: Homo sapiens; HCC-2998 (Colon Cancer), 10^-5 M, 48 h; read-out: % Growth Inhibition (GI %)
Summary of the method: as §1

[5] = tested on: CCRF-CEM; assay: NCI one-dose SRB growth assay; type: cell-based; details: Homo sapiens; CCRF-CEM (Leukemia), 10^-5 M, 48 h; read-out: % Growth Inhibition (GI %)
[6] = tested on: ACHN; assay: NCI one-dose SRB growth assay; type: cell-based; details: Homo sapiens; ACHN (Renal Cancer), 10^-5 M, 48 h; read-out: % Growth Inhibition (GI %)
Summary of the method: as §1

[7] = tested on: SNB-75; assay: NCI one-dose SRB growth assay; type: cell-based; details: Homo sapiens; SNB-75 (CNS Cancer), 10^-5 M, 48 h; read-out: % Growth Inhibition (GI %)
Summary of the method: as §1

[8] = tested on: DU-145; assay: NCI one-dose SRB growth assay; type: cell-based; details: Homo sapiens; DU-145 (Prostate Cancer), 10^-5 M, 48 h; read-out: % Growth Inhibition (GI %)
Summary of the method: as §1

[9] = tested on: NCI-H322M; assay: NCI one-dose SRB growth assay; type: cell-based; details: Homo sapiens; NCI-H322M (Non-Small Cell Lung Cancer), 10^-5 M, 48 h; read-out: % Growth Inhibition (GI %)
[10] = tested on: OVCAR-5; assay: NCI one-dose SRB growth assay; type: cell-based; details: Homo sapiens; OVCAR-5 (Ovarian Cancer), 10^-5 M, 48 h; read-out: % Growth Inhibition (GI %)
Summary of the method: as §1

[11] = tested on: 60 human tumor cell line panel; assay: NCI 60 cell line one-dose SRB primary anticancer assay; type: cell-based; details: 60 cell lines assay in one dose, 10µM (title; head prints 10.0 mM), 48 h
Procedure: A primary anticancer assay was performed for an approximately 60 human tumor cell line panel derived from nine neoplastic diseases, in accordance with the protocol of the Drug Evaluation Branch, National Cancer Institute, Bethesda, MD (Monks A. et al., J. Natl. Cancer Inst 1991, 83, 757-766; Boyd M.R. and Paull K.D., Drug. Dev. Res. 1995, 34, 91-109; Shoemaker R.H., Nat. Rev. Cancer 2006, 6, 813-823). Briefly, tested compounds were added to the culture at a single concentration (10^-5M), and the cultures were incubated for 48 h. End point determinations were made with a protein binding dye, sulforhodamine B (SRB). The results for each tested compound were reported as the growth percentage of the treated cells when compared to that of the untreated control cells. The percentage growth was evaluated spectrophotometrically versus controls not treated with test agents.

[12] = tested on: ovarian cancer; assay: NCI five-dose SRB assay, subpanel average; details: 48 h
[13] = tested on: renal cancer; assay: NCI five-dose SRB assay, subpanel average; details: 48 h
[14] = tested on: NSC lung cancer; assay: NCI five-dose SRB assay, subpanel average; details: 48 h
[15] = tested on: colon cancer; assay: NCI five-dose SRB assay, subpanel average; details: 48 h
[16] = tested on: melanoma; assay: NCI five-dose SRB assay, subpanel average; details: 48 h
[17] = tested on: full panel of about 60 human tumor cell lines; assay: NCI five-dose SRB assay, full panel mean; details: 48 h
[18] = Homo sapiens, read-out: GI50 (median growth inhibitory)
[19] = Homo sapiens, read-out: LC50 (median lethal)

## CCn1cc(C(=O)O)c(=O)c2cc(F)c(N3CCN(S(=O)(=O)c4c(C)cc(C)cc4C)CC3)cc21 [Compound 6a]
[1]
  inhibition at 10 µM: 20.1%
[2]
  inhibition at 10 µM: 17.2%
[3]
  inhibition at 10 µM: 16.3%
[4]
  inhibition at 10 µM: 17.5%
[5]
  inhibition at 10 µM: 18.2%
[6]
  inhibition at 10 µM: 24.2%
[7]
  inhibition at 10 µM: 29.2%
[8]
  inhibition at 10 µM: < 10%
[9]
  inhibition at 10 µM: 16.5%
[10]
  inhibition at 10 µM: 11.4%
[11]
  PCE (Positive cytotoxic effect: ratio between number of cell lines with percentage growth inhibition from 10 to >100 and total number of cell lines): 46/58
  RGI % (Range of growth inhibition percentage): 66.90 to 10.12%
[11]; Homo sapiens, read-out: MGI % (Mean growth inhibition percentage)
  inhibition at 10 µM: 18.3%

## O=c1[nH]cc(F)c(=O)[nH]1 [Compound 5-FU, 5-fluorouracil, reference compound]
[1]
  inhibition at 10 µM: > 100%
[2]
  inhibition at 10 µM: 13%
[3]
  inhibition at 10 µM: 59%
[4]
  inhibition at 10 µM: > 100%
[5]
  inhibition at 10 µM: 57.1%
[6]
  inhibition at 10 µM: 39.3%
[7]
  inhibition at 10 µM: 65.9%
[8]
  inhibition at 10 µM: 35.5%
[9]
  inhibition at 10 µM: 59.5%
[10]
  inhibition at 10 µM: 44.3%
[12]; [18]
  GI50: 61.4 µM
[12]; [19]
  CC50: > 100 µM
[12]; average over ovarian cancer subpanel, five concentrations
  TGI (total growth inhibitory): c (Compounds showed values > 100µM)
[13]; [18]
  GI50: 45.6 µM
[13]; [19]
  CC50: > 100 µM
[13]; average over renal cancer subpanel, five concentrations
  TGI (total growth inhibitory): c (Compounds showed values > 100µM)
[14]; [18]
  GI50: > 100 µM
[14]; [19]
  CC50: > 100 µM
[14]; average over NSC lung cancer subpanel, five concentrations
  TGI (total growth inhibitory): c (Compounds showed values > 100µM)
[15]; [18]
  GI50: 8.4 µM
[15]; [19]
  CC50: > 100 µM
[15]; average over colon cancer subpanel, five concentrations
  TGI (total growth inhibitory): c (Compounds showed values > 100µM)
[16]; [18]
  GI50: 70.6 µM
[16]; [19]
  CC50: > 100 µM
[16]; average over melanoma subpanel, five concentrations
  TGI (total growth inhibitory): c (Compounds showed values > 100µM)
[17]; Homo sapiens, read-out: GI50 MG-MID (Full panel mean-graph midpoint)
  GI50: 22.6 µM
[17]; Homo sapiens, read-out: LC50 MG-MID (Full panel mean-graph midpoint)
  CC50: > 100 µM
[17]; full panel, five concentrations
  TGI MG-MID (Full panel mean-graph midpoint): c (Compounds showed values > 100µM)
